This test has as its target P70S6K (T412E mutant) (Homo sapiens (Human), UniProt P23443, T412E). The test is described as follows: P70S6K enzyme assay. To be noted: 3 nM P70S6K T412E mutant, 24 μM ATP, 1 μM FITC-AHA-AKRRRLSSLRA-OH substrate peptide, 90 min at 25° C. The test is classed as biochemical. Here is the method: The IC50 values reported for the compounds in the Experimental section were derived from the following protocol for the p70S6K enzyme assay.
P70S6K inhibitor compounds were diluted and plated in 96 well plates. A reaction mixture including the following components was then added to the compound plate to initiate the enzyme reaction; P70S6K (3 nM, T412E mutant, Millipore) was mixed with 24 μM ATP in an assay buffer containing 100 mM Hepes (pH 7.5), 5 mM MgCl2, 1 mM DTT, 0.015% Brij and 1 μM of the substrate peptide FITC-AHA-AKRRRLSSLRA-OH (derived from the S6 ribosomal protein sequence, FITC=fluorescein isothiocyanate, AHA=6-aminohexanoic acid). The reaction was incubated for 90 min at 25° C., before the addition of 10 mM EDTA to stop the reaction. The proportion of substrate and product (phosphorylated) peptide was analysed on a Caliper Life Sciences Lab Chip 3000, using a pressure of −1.4 psi, and upstream and downstream voltages of −3000 and −700 respectively. Product peaks were resolved before substrate peaks on the resulting chromatograms.

The values that follow come from patent US9321760B2 (Merck Patent GmbH, priority 2011, dated 2016).

For orientation: IC50 means the concentration that gives 50% inhibition.

Sequence of P70S6K (T412E mutant) (P23443 whole entry T412E): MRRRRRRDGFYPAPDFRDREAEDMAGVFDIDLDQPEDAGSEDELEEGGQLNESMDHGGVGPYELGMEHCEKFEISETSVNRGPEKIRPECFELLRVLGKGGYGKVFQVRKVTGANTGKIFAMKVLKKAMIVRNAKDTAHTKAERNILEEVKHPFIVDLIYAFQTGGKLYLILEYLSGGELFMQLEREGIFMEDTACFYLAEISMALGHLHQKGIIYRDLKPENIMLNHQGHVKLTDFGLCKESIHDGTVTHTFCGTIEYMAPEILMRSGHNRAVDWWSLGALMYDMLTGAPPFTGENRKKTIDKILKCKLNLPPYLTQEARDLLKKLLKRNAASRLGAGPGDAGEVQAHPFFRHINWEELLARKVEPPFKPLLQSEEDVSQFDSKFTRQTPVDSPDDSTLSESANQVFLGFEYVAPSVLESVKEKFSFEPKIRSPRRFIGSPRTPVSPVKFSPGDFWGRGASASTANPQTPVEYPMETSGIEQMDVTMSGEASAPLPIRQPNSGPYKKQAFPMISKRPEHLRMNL

Regarding `Cn1cc(-c2c(N)ncnc2N2CCC(C(CN)c3ccc(C(F)(F)F)cc3)CC2)cn1` (centres unmarked) [Example 58, 6-(4-(2-amino-1-(4-(trifluoromethyl)phenyl)ethyl)piperidin-1-yl)-5-(1-methyl-1H-pyrazol-4-yl)pyrimidin-4-amine], the IC50 amounted to 31 nM. `NCC(c1ccc(C(F)(F)F)cc1)C1CCN(c2ncnc(N)c2-c2cnoc2)CC1` (centres unmarked) [Example 59, 6-(4-(2-amino-1-(4-(trifluoromethyl)phenyl)ethyl)piperidin-1-yl)-5-(isoxazol-4-yl)pyrimidin-4-amine]: the IC50 stood at 140 nM.

`Nc1ncnc(N2CCN(Cc3cc(Cl)c(Cl)cc3O)CC2)c1-c1ccc(F)cc1` [Example 60, 2-((4-(6-amino-5-(4-fluorophenyl)pyrimidin-4-yl)piperazin-1-yl)methyl)-4,5-dichlorophenol] yielded an IC50 of 74 nM. In the case of `CC(c1ccc(Cl)cc1O)N1CCN(c2ncnc(N)c2-c2ccc(F)cc2)CC1` (centres unmarked) [Example 61, 2-(1-(4-(6-amino-5-(4-fluorophenyl)pyrimidin-4-yl)piperazin-1-yl)ethyl)-5-chlorophenol] it was 33 nM; in that of `Nc1ncnc(N2CCN(Cc3cc(Cl)c(Cl)cc3OC3CNC3)CC2)c1-c1ccc(F)cc1` [Example 62, 6-(4-(2-(azetidin-3-yloxy)-4,5-dichlorobenzyl)piperazin-1-yl)-5-(4-fluorophenyl)pyrimidin-4-amine], 980 nM; in that of `CC(c1ccc(Cl)cc1OC1CNC1)N1CCN(c2ncnc(N)c2-c2ccc(F)cc2)CC1` (centres unmarked) [Example 63, 6-(4-{1-[2-(Azetidin-3-yloxy)-4-chloro-phenyl]-ethyl}-piperazin-1-yl)-5-(4-fluoro-phenyl)-pyrimidin-4-ylamine], 980 nM. In the case of `Nc1ncnc(N2CCN(C(CN3CCCCC3)c3cccc(F)c3)CC2)c1-c1ccc(F)cc1` (centres unmarked) [Example 64, 5-(4-Fluorophenyl)-6{4-[1-(3-fluoro-phenyl)-2-piperidin-1-yl-ethyl]-piperazin-1-yl}-pyrimidin-4-ylamine] it was 50 nM; in that of `Nc1ncnc(N2CCN(C(CN3CCCCC3)c3cccc(C(F)(F)F)c3)CC2)c1-c1ccc(F)cc1` (centres unmarked) [Example 65, 5-(4-Fluorophenyl)-6{4-[1-(3-trifluoro-phenyl)-2-piperidin-1-yl-ethyl]-piperazin-1-yl}-pyrimidin-4-ylamine], 120 nM. Regarding `Nc1ncnc(N2CCN(C(CN3CCCC3)c3cccc(C(F)(F)F)c3)CC2)c1-c1ccc(F)cc1` (centres unmarked) [Example 66, 5-(4-Fluorophenyl)-6{4-[1-(3-trifluoromethyl-phenyl)-2-pyrrolidin-1-yl-ethyl]-piperazin-1-yl}-pyrimidin-4-ylamine], the IC50 amounted to 82 nM. In turn, `Nc1ncnc(N2CCN(C(CN3CCCCC3)c3ccc(F)cc3)CC2)c1-c1ccc(F)cc1` (centres unmarked) [Example 67, 5-(4-Fluorophenyl)-6{4-[1-(4-fluoro-phenyl)-2-piperidin-1-yl-ethyl]-piperazin-1-yl}-pyrimidin-4-ylamine] yielded an IC50 of 24 nM. In the case of `Nc1ncnc(N2CCN(C(CN3CCCCC3)c3cccc(F)c3)CC2)c1Br` (centres unmarked) [Example 68, 5-Bromo-6{4-[1-(3-fluoro-phenyl)-2-piperidin-1-yl-ethyl]-piperazin-1-yl}-pyrimidin-4-ylamine] it was over 1000 nM; in that of `Nc1ncnc(N2CCN(C(CN3CCCC3)c3cccc(C(F)(F)F)c3)CC2)c1Br` (centres unmarked) [Example 69, 5-Bromo-6{4-[1-(3-trifluoromethyl-phenyl)-2-pyrrolidin-1-yl-ethyl]-piperazin-1-yl}-pyrimidin-4-ylamine], over 1000 nM; in that of `Nc1ncnc(N2CCN(C(CN3CCCCC3)c3cccc(C(F)(F)F)c3)CC2)c1Br` (centres unmarked) [Example 70, 5-Bromo-6{4-[1-(3-trifluoromethyl-phenyl)-2-piperidin-1-yl-ethyl]-piperazin-1-yl}-pyrimidin-4-ylamine], over 1000 nM.

In turn, `Nc1cc(N2CCN(C(CN3CCCCC3)c3cccc(C(F)(F)F)c3)CC2)ncn1` (centres unmarked) [Example 71, 6-{4-[1-(3-trifluoromethyl-phenyl)-2-piperidin-1-yl-ethyl]-piperazin-1-yl}-pyrimidin-4-ylamine] gave a concentration for half-maximal inhibition (IC50) of over 1000 nM. Regarding `Nc1ncnc(N2CCN(C(CN3CCCCC3)c3ccc(F)cc3)CC2)c1Br` (centres unmarked) [Example 72, 5-Bromo-6{4-[1-(4-fluoro-phenyl)-2-piperidin-1-yl-ethyl]-piperazin-1-yl}-pyrimidin-4-ylamine], the half-inhibitory concentration (IC50) was over 1000 nM.

`Nc1cc(N2CCN(C(CN3CCCC3)c3cccc(C(F)(F)F)c3)CC2)ncn1` (centres unmarked) [Example 73, 6-{4-[1-(3-trifluoromethyl-phenyl)-2-pyrrolidin-1-yl-ethyl]-piperazin-1-yl}-pyrimidin-4-ylamine] had an IC50 of over 1000 nM. The same measure for `NCC(c1ccc(C(F)(F)F)cc1)N1CCN(c2ncnc(N)c2F)CC1` (centres unmarked) [Example 74, 6-{4-[2-Amino-1-(4-trifluoromethyl-phenyl)-ethyl]-piperazin-1-yl}-5-fluoro-pyrimidin-4-ylamine]: 370 nM. `Nc1ncnc(N2CCN(C(CN3CCCC3)c3ccc(F)cc3)CC2)c1-c1ccc(F)cc1` (centres unmarked) [Example 75, 5-(4-Fluorophenyl)-6{4-[1-(4-fluorophenyl)-2-pyrrolidin-1-yl-ethyl]-piperazin-1-yl}-pyrimidin-4-ylamine]: the IC50 came out at 15 nM. `Nc1cc(N2CCN(C(CN3CCCCC3)c3cccc(F)c3)CC2)ncn1` (centres unmarked) [Example 76, 6-{4-[1-(3-fluorophenyl)-2-piperidin-1-yl-ethyl]-piperazin-1-yl}-pyrimidin-4-ylamine] gave a 50% inhibitory concentration (IC50) of over 1000 nM. `Nc1ncnc(N2CCN(C(CN3CCCC3)c3ccc(F)cc3)CC2)c1Br` (centres unmarked) [Example 77, 5-Bromo-6{4-[1-(4-fluorophenyl)-2-pyrrolidin-1-yl-ethyl]-piperazin-1-yl}-pyrimidin-4-ylamine] yielded an IC50 of 640 nM. Molecule `Nc1cc(N2CCN(C(CN3CCCC3)c3ccc(F)cc3)CC2)ncn1` (centres unmarked) [Example 78, 6-{4-[1-(4-fluorophenyl)-2-pyrrolidin-1-yl-ethyl]-piperazin-1-yl}-pyrimidin-4-ylamine] showed an IC50 of over 1000 nM. In the case of `Nc1cc(N2CCN(C(CN3CCCCC3)c3ccc(F)cc3)CC2)ncn1` (centres unmarked) [Example 79, 6-{4-[1-(4-fluoro-phenyl)-2-piperidin-1-yl-ethyl]-piperazin-1-yl}-pyrimidin-4-ylamine] it was over 1000 nM. Molecule `NCC(c1ccc(C(F)(F)F)cc1)N1CCN(c2ncnc(N)c2Cl)CC1` (centres unmarked) [Example 80, 6-{4-[2-Amino-1-(4-trifluoromethyl-phenyl)-ethyl]-piperazin-1-yl}-5-chloro-pyrimidin-4-ylamine] gave an IC50 of 79 nM. Molecule `Nc1ncnc(N2CCN(C(CN3CCCC3)c3ccc(F)cc3)CC2)c1Cl` (centres unmarked) [Example 81, 5-Chloro-6{4-[1-(4-fluorophenyl)-2-pyrrolidin-1-yl-ethyl]-piperazin-1-yl}-pyrimidin-4-ylamine] yielded an IC50 of over 1000 nM.

With `Nc1ncnc(N2CCN([C@H](CN3CCC3)c3cccc(F)c3)CC2)c1-c1cn[nH]c1` [Example 87, 6-{4-[(S)-2-Azetidin-1-yl-1-(3-fluoro-phenyl)-ethyl]-piperazin-1-yl}-5-(1H-pyrazol-4-yl)-pyrimidin-4-ylamine], half-maximal inhibition (IC50) required 8700 nM. The same measure for `N#Cc1ccc([C@@H](CN2CCC2)N2CCN(c3ncnc(N)c3-c3cn[nH]c3)CC2)cc1` [Example 88, 4-((S)-1-{4-[6-Amino-5-(1H-pyrazol-4-yl)-pyrimidin-4-yl]-piperazin-1-yl}-2-azetidin-1-yl-ethyl)-benzonitrile]: 6700 nM. On to `COC(=O)c1ccc([C@@H](CN2CCC2)N2CCN(c3ncnc(N)c3-c3cn[nH]c3)CC2)cc1` [Example 89, 4-((S)-1-{4-[6-Amino-5-(1H-pyrazol-4-yl)-pyrimidin-4-yl]-piperazin-1-yl}-2-azetidin-1-yl-ethyl)-benzoic acid methyl ester], for which the IC50 amounted to 2700 nM. Molecule `Nc1ncnc(N2CCN(C(CN3CCC3)c3cccc(F)c3)CC2)c1-c1ccc(F)cc1` (centres unmarked) [Example 90, 6-{4-[2-Azetidin-1-yl-1-(3-fluoro-phenyl)-ethyl]-piperazin-1-yl}-5-(4-fluoro-phenyl)-pyrimidin-4-ylamine] had an IC50 of 600 nM. `N#Cc1cccc([C@H](CN2CCC2)N2CCN(c3ncnc(N)c3-c3cn[nH]c3)CC2)c1` [Example 91, 3-((R)-1-{4-[6-Amino-5-(1H-pyrazol-4-yl)-pyrimidin-4-yl]-piperazin-1-yl}-2-azetidin-1-yl-ethyl)-benzonitrile]: inhibition was half-maximal at 6300 nM (IC50).

`COc1ccc(C(CN2CCC2)N2CCN(c3ncnc(N)c3-c3ccc(F)cc3)CC2)cc1F` (centres unmarked) [Example 92, 6-{4-[2-Azetidin-1-yl-1-(3-fluoro-4-methoxy-phenyl)-ethyl]-piperazin-1-yl}-5-(4-fluoro-phenyl)-pyrimidin-4-ylamine] came in with an IC50 of 300 nM. Regarding `CS(=O)(=O)c1ccc([C@H](CN2CCC2)N2CCN(c3ncnc(N)c3-c3cn[nH]c3)CC2)cc1` [Example 93, 6-{4-[(R)-2-Azetidin-1-yl-1-(4-methanesulfonyl-phenyl)-ethyl]-piperazin-1-yl}-5-(1H-pyrazol-4-yl)-pyrimidin-4-ylamine], 4300 nM corresponded to half-maximal inhibition (IC50). For the molecule `Nc1ncnc(N2CCN([C@@H](CN3CCC3)c3ccc4c(c3)OCCO4)CC2)c1-c1ccc(F)cc1` [Example 94, 6-{4-[(R)-2-Azetidin-1-yl-1-(2,3-dihydro-benzo[1,4]dioxin-6-yl)-ethyl]-piperazin-1-yl}-5-(4-fluoro-phenyl)-pyrimidin-4-ylamine], the IC50 was 1600 nM.
